Measurements: patent publication US9925189B2, “Heterocyclic receptor agonists for the treatment of diabetes and metabolic disorders” (CymaBay Therapeutics, Inc., priority 2006, dated 2018)

Target: T1, IC-GPCR2 (Homo sapiens, UniProt Q8TDV5, S309L)
T1 construct: expressed in transfected cells
T1 sequence (Q8TDV5 1-335 S309L): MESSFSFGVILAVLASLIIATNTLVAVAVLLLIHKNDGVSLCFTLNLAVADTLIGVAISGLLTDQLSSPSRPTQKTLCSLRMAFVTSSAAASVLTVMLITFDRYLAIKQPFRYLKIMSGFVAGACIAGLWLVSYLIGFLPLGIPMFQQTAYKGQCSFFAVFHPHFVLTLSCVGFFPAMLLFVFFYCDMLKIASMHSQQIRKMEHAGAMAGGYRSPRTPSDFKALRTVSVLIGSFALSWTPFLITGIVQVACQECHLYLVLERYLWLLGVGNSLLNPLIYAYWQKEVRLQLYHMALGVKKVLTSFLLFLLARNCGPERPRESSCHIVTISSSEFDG
Experiment: Stimulation of cAMP in CHO cells stably expressing IC-GPCR2 (HTRF cAMP assay)
Assay type: cell-based
Settings: 0.5 h, 30 minutes, IC-GPCR2 stably expressing CHO cells, read-out: Activity at 10 uM (% change in FRET signal from DMSO control)
Outline: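 CHO cells stably expressing IC-GPCR2, plated at 17500 cells/well, treated next day for 30 min in Ham's F12 with compounds at 6–8 concentrations from 0.00003 to 10 μM; parental CHO cells also screened. Intracellular cAMP read by HTRF competitive immunoassay (665/620 nm ratio). Activity given as % FRET change from DMSO control.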

activation at 10 µM [%] | SMILES
74 | CC(C)OC(=O)N1CCC(c2nc(COc3ccc(S(C)(=O)=O)cc3F)cs2)CC1 [Example 148, 4-[4-(2-Fluoro-4-methanesulfonyl-phenoxymethyl)-thiazol-2-yl]-piperidine-1-carboxylic acid isopropyl ester]
32 | CCCN1CCC(c2nc(COc3ccc(-n4cnnn4)cc3)cs2)CC1 [Example 150, 1-Propyl-4-[4-(4-tetrazol-1-yl-phenoxymethyl)-thiazol-2-yl]-piperidine]
54 | CC(C)(C)C(=O)CN1CCC(c2nc(COc3ccc(-n4cnnn4)cc3)cs2)CC1 [Example 151, 3,3-Dimethyl-1-{4-[4-(4-tetrazol-1-yl-phenoxymethyl)-thiazol-2-yl]-piperidin-1-yl}-butan-2-one]
68 | CCCCN1CCC(c2nc(COc3ccc(-n4cnnn4)cc3)cs2)CC1 [Example 152, 1-Butyl-4-[4-(4-tetrazol-1-yl-phenoxymethyl)-thiazol-2-yl]-piperidine]
44 | O=C(CN1CCC(c2nc(COc3ccc(-n4cnnn4)cc3)cs2)CC1)c1ccc(OC(F)(F)F)cc1 [Example 153, 2-{4-[4-(4-Tetrazol-1-yl-phenoxymethyl)-thiazol-2-yl]-piperidin-1-yl}-1-(4-trifluoromethoxy-phenyl)-ethanone]
66 | CS(=O)(=O)N1CCC(c2nc(COc3ccc(-n4cnnn4)cc3)cs2)CC1 [Example 154, 1-Methanesulfonyl-4-[4-(4-tetrazol-1-yl-phenoxymethyl)-thiazol-2-yl]-piperidine]
73 | CCCCCCCOC(=O)N1CCC(c2nc(COc3ccc(-n4cnnn4)cc3)cs2)CC1 [Example 155, 4-[4-(4-Tetrazol-1-yl-phenoxymethyl)-thiazol-2-yl]-piperidine-1-carboxylic acid heptyl ester]
6 | Cc1ccc(S(=O)(=O)N2CCC(c3nc(COc4ccc(-n5cnnn5)cc4)cs3)CC2)cc1 [Example 156, 4-[4-(4-Tetrazol-1-yl-phenoxymethyl)-thiazol-2-yl]-1-(toluene-4-sulfonyl)-piperidine]
78 | CCc1cnc(N2CCC(c3nc(COc4c(F)cc(-n5cnnn5)cc4F)cs3)CC2)nc1 [Example 159, 2-{4-[4-(2,6-Difluoro-4-tetrazol-1-yl-phenoxymethyl)-thiazol-2-yl]-piperidin-1-yl}-5-ethyl-pyrimidine]
77 | CCc1cnc(N2CCC(c3nc(COc4ccc(-n5cccc5)cc4)cs3)CC2)nc1 [Example 160, 5-Ethyl-2-{4-[4-(4-pyrrol-1-yl-phenoxymethyl)-thiazol-2-yl]-piperidin-1-yl}-pyrimidine]
79 | CCc1cnc(N2CCC(c3nc(CNc4ccc(-n5cnnn5)cc4)cs3)CC2)nc1 [Example 161, {2-[1-(5-Ethyl-pyrimidin-2-yl)-piperidin-4-yl]-thiazol-4-ylmethyl}-(4-tetrazol-1-yl-phenyl)-amine]
79 | CC(C)c1cnc(N2CCC(c3nc(COc4ccc(-n5cnnn5)cc4F)cs3)CC2)nc1 [Example 162, 2-{4-[4-(2-Fluoro-4-tetrazol-1-yl-phenoxymethyl)-thiazol-2-yl]-piperidin-1-yl}-5-isopropyl-pyrimidine]
68 | CCc1cnc(N2CCC(c3nc(COc4ccc(-n5cnnn5)cc4C)cs3)CC2)nc1 [Example 164, 5-Ethyl-2-{4-[4-(2-methyl-4-tetrazol-1-yl-phenoxymethyl)-thiazol-2-yl]-piperidin-1-yl}-pyrimidine]
71 | Clc1cnc(N2CCC(c3nc(COc4ccc(-n5cnnn5)cc4Cl)cs3)CC2)nc1 [Example 165, 5-Chloro-2-{4-[4-(2-chloro-4-tetrazol-1-yl-phenoxymethyl)-thiazol-2-yl]-piperidin-1-yl}-1-pyrimidine]
74 | FC(F)(F)c1cnc(N2CCC(c3nc(COc4ccc(-n5cnnn5)cc4Cl)cs3)CC2)nc1 [Example 166, 2-{4-[4-(2-Chloro-4-tetrazol-1-yl-phenoxymethyl)-thiazol-2-yl]-piperidin-1-yl}-5-trifluoromethyl-pyrimidine]
85 | CCc1cnc(N2CCC(c3nc(COc4ccc(-n5cnnn5)cc4)co3)CC2)nc1 [Example 169, 5-Ethyl-2-{4-[4-(4-tetrazol-1-yl-phenoxymethyl)-oxazol-2-yl]-piperidin-1-yl}-pyrimidine]

activation at 10 µM [%] | SMILES
75 | CCc1cnc(N2CCC(c3nc(COc4ccc(-n5cnnn5)cc4F)co3)CC2)nc1 [Example 170, 5-Ethyl-2-{4-[4-(2-fluoro-4-tetrazol-1-yl-phenoxymethyl)-oxazol-2-yl]-piperidin-1-yl}-pyrimidine]
76 | Fc1cc(-n2cnnn2)ccc1OCc1csc(C2CCN(c3ncc(C(F)(F)F)cn3)CC2)n1 [Example 171, 2-{4-[4-(2-Fluoro-4-tetrazol-1-yl-phenoxymethyl)-thiazol-2-yl]-piperidin-1-yl}-5-trifluoromethyl-pyrimidine]
75 | COC(=O)c1cc(C)nc(N2CCC(c3nc(COc4ccc(-n5cnnn5)cc4)cs3)CC2)n1 [Example 173, 6-Methyl-2-{4-[4-(4-tetrazol-1-yl-phenoxymethyl)-thiazol-2-yl]-piperidin-1-yl}-pyrimidine-4-carboxylic acid methyl ester]
43 | Cc1cc(C(=O)O)nc(N2CCC(c3nc(COc4ccc(-n5cnnn5)cc4)cs3)CC2)n1 [Example 176, 6-Methyl-2-{4-[4-(4-tetrazol-1-yl-phenoxymethyl)-thiazol-2-yl]-piperidin-1-yl}-pyrimidine-4-carboxylic acid]
39 | Fc1ccnc(N2CCC(c3nc(COc4ccc(-n5cnnn5)cc4)cs3)CC2)n1 [Example 178, 4-Fluoro-2-{4-[4-(4-tetrazol-1-yl-phenoxymethyl)-thiazol-2-yl]-piperidin-1-yl}-pyrimidine]
59 | CCOC(=O)c1cnc(N2CCC(c3nc(COc4ccc(-n5cnnn5)cc4)cs3)CC2)s1 [Example 180, 2-{4-[4-(4-Tetrazol-1-yl-phenoxymethyl)-thiazol-2-yl]-piperidin-1-yl}-thiazole-5-carboxylic acid ethyl ester]
78 | CCc1cnc(N2CCC(c3nc(COc4ccc(-n5cnnn5)nc4)cs3)CC2)nc1 [Example 182, 5-Ethyl-2-{4-[4-(6-tetrazol-1-yl-pyridin-3-yloxymethyl)-thiazol-2-yl]-piperidin-1-yl}-pyrimidine]
78 | Cc1cnc(N2CCC(c3nc(COc4ccc(-n5cnnn5)nc4)cs3)CC2)nc1 [Example 183, 5-Methyl-2-{4-[4-(6-tetrazol-1-yl-pyridin-3-yloxymethyl)-thiazol-2-yl]-piperidin-1-yl}-pyrimidine]
69 | Clc1cnc(N2CCC(c3nc(COc4ccc(-n5cnnn5)nc4)cs3)CC2)nc1 [Example 184, 5-Chloro-2-{4-[4-(6-tetrazol-1-yl-pyridin-3-yloxymethyl)-thiazol-2-yl]-piperidin-1-yl}-pyrimidine]
83 | FC(F)(F)c1cnc(N2CCC(c3nc(COc4ccc(-n5cnnn5)nc4)cs3)CC2)nc1 [Example 185, 2-{4-[4-(6-Tetrazol-1-yl-pyridin-3-yloxymethyl)-thiazol-2-yl]-piperidin-1-yl}-5-trifluoromethyl-pyrimidine]
80 | Clc1ccc(N2CCC(c3nc(COc4ccc(-n5cnnn5)cc4)cs3)CC2)nn1 [Example 186, 3-Chloro-6-{4-[4-(4-tetrazol-1-yl-phenoxymethyl)-thiazol-2-yl]-piperidin-1-yl}-pyridazine]
75 | c1cc(-n2cnnn2)ccc1OCc1csc(C2CCN(c3cnc(-n4cnnn4)cn3)CC2)n1 [Example 187, 2-Tetrazol-1-yl-5-{4-[4-(4-tetrazol-1-yl-phenoxymethyl)-thiazol-2-yl]-piperidin-1-yl}-pyrazine]
69 | CCc1cnc(N2CCC(c3nc(CNc4ccc(F)nc4)cs3)CC2)nc1 [Example 188, {2-[1-(5-Ethyl-pyrimidin-2-yl)-piperidin-4-yl]-thiazol-4-ylmethyl}-(6-fluoro-pyridin-3-yl)-amine]
76 | CCc1cnc(N2CCC(c3nc(COc4c(F)cc(S(C)(=O)=O)cc4F)cs3)CC2)nc1 [Example 189, 2-{4-[4-(2,6-Difluoro-4-methanesulfonyl-phenoxymethyl)-thiazol-2-yl]-piperidin-1-yl}-5-ethyl-pyrimidine]
77 | CCCCc1cnc(N2CCC(c3nc(COc4ccc(-n5cnnn5)cc4)cs3)CC2)nc1 [Example 190, 5-Butyl-2-{4-[4-(4-tetrazol-1-yl-phenoxymethyl)-thiazol-2-yl]-piperidin-1-yl}-pyrimidine]
74 | CCc1cnc(N2CCC(c3nc(COc4ccc(N5CCOCC5)cc4)cs3)CC2)nc1 [Example 191, 4-(4-{2-[1-(5-Ethyl-pyrimidin-2-yl)-piperidin-4-yl]-thiazol-4-ylmethoxy}-phenyl)-morpholine]

SMILES | activation at 10 µM [%]
CC(C)(C)OCC(=O)N1CCC(c2nc(COc3ccc(-n4cnnn4)cc3)cs2)CC1 [Example 157, 2-tert-Butoxy-1-{4-[4-(4-tetrazol-1-yl-phenoxymethyl)-thiazol-2-yl]-piperidin-1-yl}-ethanone] | 57
